Results as given in patent US8334316B2, “Substituted organosulfur compounds and methods of using thereof” (ACEA Biosciences, Inc., priority 2004, dated 2012).
Like-named read-outs stand apart in the source and are kept apart here.

Assay: Acute toxicity, single intravenous injection, LD50 (Bliss method) in Kunming mice
Format: in vivo
Conditions: for Dead animals on day 8 after the single intravenous injection / Dead animals on day 9 after the single intravenous injection / Dead animals on days 10-14 after the single intravenous injection / Percentage of dead animals / Dead animals on day 1 after the single intravenous injection / Dead animals on day 2 after the single intravenous injection / Dead animals on day 3 after the single intravenous injection / Dead animals on day 4 after the single intravenous injection / Dead animals on day 5 after the single intravenous injection / Dead animals on day 6 after the single intravenous injection / Dead animals on day 7 after the single intravenous injection: 10 animals; for LD50 at 2 weeks: Kunming, mouse, in vivo, iv
Protocol: To evaluate the in vivo acute, intravenous toxicity of DBTS and ACEA100108 (a derivative of DBTS, see Table 33), the experiments were performed in non-tumor bearing, normal Kunming mice by monitoring the acute response of mice to a single dose of DBTS or ACEA100108 via intravenous injection (i.v.). The number of death for the treated mice was monitored and recorded. LD50 values for these compounds were calculated. Details of the study are provided below.
The experiments to test DBTS and ACEA100108 acute toxicity were performed in mice. The test mice were randomly divided into six groups (five dosing groups and one control group). Each group contained 20 Kunming strain mice, and among them, 50% were male and 50% were female. After administration of a single dose of DBTS or ACEA100108 via intravenous injection (i.v.), the acute response to DBTS or ACEA100108 compound, and the death of the treated mice during the first two weeks were monitored and recorded. The LD50 value was calculated using the Bliss method.
Materials and Method. The test chemical compound were DBTS and ACEA100108, which were dissolved into hydrogenated castor oil in the pre-warmed water bath and made as a 20 mg/ml solution. The solution was further diluted to desired experiment concentrations with the normal saline. The administration volume was 0.5 ml i.v. per mouse and the injection speed was 0.5 ml/0.5 min.
The experimental mice were Kunming strain, provided by the Experimental Animal Department, Shanghai Pharmaceutical Industry Institute. The certificate number of the facility was Animal Facility Certification Number 107. The average weight of the mice was 18-20 gram. Each test group contained 20 Kunming strain mice, and among them, 10 mice were male and 10 mice were female. […] The mice in the control group were only given the same volume of the solvent, which were diluted hydrogenated castor oil. All the testing mice were given a single intravenous injection of DBTS, ACEA100108, or the solvent that served as the control at the injection speed of 0.5 ml/0.5 min. The acute response to DBTS, ACEA100108 or the solvent immediately after the administration, as well as weight change, and the death within the first two weeks of the administration were monitored and recorded. The intravenous injection LD50 values in mice were calculated using the Bliss method.

## Fc1ccc(CSSSCc2ccc(F)cc2)cc1 [ACEA100108, Di(p-fluorobenzyl)trisulfide]
Female, 320 mg/kg
  Dead animals on day 8 after the single intravenous injection: 0
  Dead animals on day 9 after the single intravenous injection: 0
  Dead animals on days 10-14 after the single intravenous injection: 0 - - - 0
  Percentage of dead animals: 50%
Female, 320 mg/kg, Beginning 19.9
  Average animal weight, End: 24.6
Female, 400 mg/kg
  Dead animals on day 1 after the single intravenous injection: 5
  Dead animals on day 2 after the single intravenous injection: 2
  Dead animals on day 3 after the single intravenous injection: 0
  Dead animals on day 4 after the single intravenous injection: 1
  Dead animals on day 5 after the single intravenous injection: 0
  Dead animals on day 6 after the single intravenous injection: 0
  Dead animals on day 7 after the single intravenous injection: 0
  Dead animals on day 8 after the single intravenous injection: 0
  Dead animals on day 9 after the single intravenous injection: 0
  Dead animals on days 10-14 after the single intravenous injection: 0 - - - 0
  Percentage of dead animals: 80%
Female, 400 mg/kg, Beginning 19.9
  Average animal weight, End: 23.5
Female, 500 mg/kg
  Dead animals on day 1 after the single intravenous injection: 10
  Dead animals on day 2 after the single intravenous injection: 0
  Dead animals on day 3 after the single intravenous injection: 0
  Dead animals on day 4 after the single intravenous injection: 0
  Dead animals on day 5 after the single intravenous injection: 0
  Dead animals on day 6 after the single intravenous injection: 0
  Dead animals on day 7 after the single intravenous injection: 0
  Dead animals on day 8 after the single intravenous injection: 0
  Dead animals on day 9 after the single intravenous injection: 0
  Dead animals on days 10-14 after the single intravenous injection: 0 - - - 0
  Percentage of dead animals: 100%
Male, 163.8 mg/kg
  Dead animals on day 1 after the single intravenous injection: 0
  Dead animals on day 2 after the single intravenous injection: 0
  Dead animals on day 3 after the single intravenous injection: 0
  Dead animals on day 4 after the single intravenous injection: 0
  Dead animals on day 5 after the single intravenous injection: 0
  Dead animals on day 6 after the single intravenous injection: 0
  Dead animals on day 7 after the single intravenous injection: 0
  Dead animals on day 8 after the single intravenous injection: 0
  Dead animals on day 9 after the single intravenous injection: 0
  Dead animals on days 10-14 after the single intravenous injection: 0 - - - 0
  Percentage of dead animals: 0%
Male, 163.8 mg/kg, Beginning 20.4
  Average animal weight, End: 27.0
Male, 204.8 mg/kg
  Dead animals on day 1 after the single intravenous injection: 0
  Dead animals on day 2 after the single intravenous injection: 0
  Dead animals on day 3 after the single intravenous injection: 1
  Dead animals on day 4 after the single intravenous injection: 0
  Dead animals on day 5 after the single intravenous injection: 0
  Dead animals on day 6 after the single intravenous injection: 0
  Dead animals on day 7 after the single intravenous injection: 0
  Dead animals on day 8 after the single intravenous injection: 0
  Dead animals on day 9 after the single intravenous injection: 0
  Dead animals on days 10-14 after the single intravenous injection: 0 - - - 0
  Percentage of dead animals: 10%
Male, 204.8 mg/kg, Beginning 20.3
  Average animal weight, End: 26.3
Male, 256 mg/kg
  Dead animals on day 1 after the single intravenous injection: 0
  Dead animals on day 2 after the single intravenous injection: 2
  Dead animals on day 3 after the single intravenous injection: 0
  Dead animals on day 4 after the single intravenous injection: 1
  Dead animals on day 5 after the single intravenous injection: 0
  Dead animals on day 6 after the single intravenous injection: 0
  Dead animals on day 7 after the single intravenous injection: 0
  Dead animals on day 8 after the single intravenous injection: 0
  Dead animals on day 9 after the single intravenous injection: 0
  Dead animals on days 10-14 after the single intravenous injection: 0 - - - 0
  Percentage of dead animals: 30%
Male, 256 mg/kg, Beginning 20.2
  Average animal weight, End: 26.3
Male, 320 mg/kg
  Dead animals on day 1 after the single intravenous injection: 0
  Dead animals on day 2 after the single intravenous injection: 3
  Dead animals on day 3 after the single intravenous injection: 1
  Dead animals on day 4 after the single intravenous injection: 0
  Dead animals on day 5 after the single intravenous injection: 0
  Dead animals on day 6 after the single intravenous injection: 0
  Dead animals on day 7 after the single intravenous injection: 0
  Dead animals on day 8 after the single intravenous injection: 0
  Dead animals on day 9 after the single intravenous injection: 0
  Dead animals on days 10-14 after the single intravenous injection: 0 - - - 0
  Percentage of dead animals: 40%
Male, 320 mg/kg, Beginning 20.0
  Average animal weight, End: 26.7
Male, 400 mg/kg
  Dead animals on day 1 after the single intravenous injection: 3
  Dead animals on day 2 after the single intravenous injection: 3
  Dead animals on day 3 after the single intravenous injection: 0
  Dead animals on day 4 after the single intravenous injection: 1
  Dead animals on day 5 after the single intravenous injection: 0
  Dead animals on day 6 after the single intravenous injection: 0
  Dead animals on day 7 after the single intravenous injection: 0
  Dead animals on day 8 after the single intravenous injection: 0
  Dead animals on day 9 after the single intravenous injection: 0
  Dead animals on days 10-14 after the single intravenous injection: 0 - - - 0
  Percentage of dead animals: 70%
Male, 400 mg/kg, Beginning 19.9
  Average animal weight, End: 26.0
Male, 500 mg/kg
  Dead animals on day 1 after the single intravenous injection: 10
  Dead animals on day 2 after the single intravenous injection: 0
  Dead animals on day 3 after the single intravenous injection: 0
  Dead animals on day 4 after the single intravenous injection: 0
  Dead animals on day 5 after the single intravenous injection: 0
  Dead animals on day 6 after the single intravenous injection: 0
  Dead animals on day 7 after the single intravenous injection: 0
  Dead animals on day 8 after the single intravenous injection: 0
  Dead animals on day 9 after the single intravenous injection: 0
  Dead animals on days 10-14 after the single intravenous injection: 0 - - - 0
  Percentage of dead animals: 100%
Both sexes, 50% male, 50% female Kunming mice, single intravenous injection, confidence limits, read-out: LD50 (95% CL)
  LD50 at 2 weeks: 284 to 351 mg/kg
Both sexes, 50% male, 50% female Kunming mice, single intravenous injection, read-out: LD50
  LD50 at 2 weeks: 316 mg/kg
Both sexes, Kunming mice, 50% male 50% female, Bliss method, read-out: mouse single i.v. dose LD50, interval in parentheses
  LD50 at 2 weeks: 284 to 351 mg/kg
Both sexes, Kunming mice, 50% male 50% female, Bliss method, read-out: mouse single i.v. dose LD50 value
  LD50 at 2 weeks: 316 mg/kg
female, Female Kunming mice, single intravenous injection, confidence limits, read-out: LD50 (95% CL)
  LD50 at 2 weeks: 273 to 360 mg/kg
female, Female Kunming mice, single intravenous injection, read-out: LD50
  LD50 at 2 weeks: 313 mg/kg
male, Male Kunming mice, single intravenous injection, confidence limits, read-out: LD50 (95% CL)
  LD50 at 2 weeks: 272 to 375 mg/kg
male, Male Kunming mice, single intravenous injection, read-out: LD50
  LD50 at 2 weeks: 319 mg/kg
